Reference: ChEMBL document CHEMBL1914338, “Tricyclic series of heat shock protein 90 (Hsp90) inhibitors part I: discovery of tricyclic imidazo[4,5-c]pyridines as potent inhibitors of the Hsp90 molecular chaperone” (J Med Chem, 2011)

Assays:
[1] = molecular target: T1, Heat shock protein HSP 90-beta (Homo sapiens, UniProt P08238)
Description: Inhibition of human Hsp90beta after overnight incubation by fluorescence polarization assay

[2] = molecular target: T1, Heat shock protein HSP 90-beta; remark: listed apart in the source
Description: Inhibition of HSP90beta in human SKBR3 cells assessed as down regulation of HER2 expression levels after 24 hrs by FACS analysis

P388 [3] = test: Antitumor activity in mouse P388 cells xenografted in B6D2F1 mouse assessed as increase in mouse life span at 80 mg/kg/day, ip for 4 days relative to control; assay type: functional; settings: route intraperitoneal
[4] = molecular target: T1, Heat shock protein HSP 90-beta; remark: listed apart in the source
Description: Binding affinity to human Hsp90beta assessed as association constant after overnight incubation by fluorescence polarization assay

P388 [5] = test: Antitumor activity in mouse P388 cells xenografted in B6D2F1 mouse assessed as median day of death at 80 mg/kg/day, ip for 4 days (reference value: 10 days); assay type: functional; settings: route intraperitoneal

T1 sequence (P08238 whole entry): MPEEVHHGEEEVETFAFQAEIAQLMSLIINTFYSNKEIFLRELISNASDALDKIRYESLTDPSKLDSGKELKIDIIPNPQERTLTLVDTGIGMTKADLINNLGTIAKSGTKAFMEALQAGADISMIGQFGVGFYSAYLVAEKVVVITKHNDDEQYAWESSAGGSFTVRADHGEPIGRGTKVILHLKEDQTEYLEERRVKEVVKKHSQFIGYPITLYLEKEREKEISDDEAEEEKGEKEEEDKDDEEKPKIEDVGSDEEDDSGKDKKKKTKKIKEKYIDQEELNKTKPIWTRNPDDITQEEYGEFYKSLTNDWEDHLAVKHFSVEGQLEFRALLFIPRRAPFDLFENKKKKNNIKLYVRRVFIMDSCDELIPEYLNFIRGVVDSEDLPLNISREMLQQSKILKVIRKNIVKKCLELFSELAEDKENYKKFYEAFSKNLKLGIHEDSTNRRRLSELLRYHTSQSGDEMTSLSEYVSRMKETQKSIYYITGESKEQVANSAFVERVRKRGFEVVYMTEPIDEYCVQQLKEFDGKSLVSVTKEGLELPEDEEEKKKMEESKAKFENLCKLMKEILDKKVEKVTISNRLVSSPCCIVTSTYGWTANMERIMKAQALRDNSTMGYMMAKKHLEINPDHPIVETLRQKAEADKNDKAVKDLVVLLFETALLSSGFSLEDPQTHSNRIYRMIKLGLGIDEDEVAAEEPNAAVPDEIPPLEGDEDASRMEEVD

Cc1onc(-c2ccc(O)cc2O)c1-c1ccccc1 gave an IC50 [1] of 7.6 µM.
For O=C1c2ccccc2C2=C(c3nc4ccncc4[nH]3)CCCN12, the IC50 [2] was greater than 50000 nM.
Compound O=C1c2ccccc2-c2c1cccc2-c1nc2cnccc2[nH]1 has an IC50 [2] greater than 50000 nM.
NC(=O)CCC(=O)NC1c2ccccc2-c2c(-c3nc4cnccc4[nH]3)cccc21 (racemic) was tested, and the IC50 [2] was 50000 nM.
O=C(NC1c2ccccc2-c2c(-c3nc4ccncc4[nH]3)cccc21)c1ccncc1 (racemic) gave an IC50 [2] of 1300 nM.
In the case of O=C(NC1c2ccccc2-c2c(-c3nc4ccccc4[nH]3)cccc21)c1cccc2ncccc12 (racemic), the IC50 [2] is reported as 1300 nM.
Compound Nc1cc(C(=O)NC2c3ccccc3-c3c(-c4nc5ccncc5[nH]4)cccc32)ccn1 (racemic) has an IC50 [2] of 900 nM.
With C=CCNC1=C2C[C@@H](C)C[C@H](OC)[C@H](O)[C@@H](C)/C=C(\C)[C@H](OC(N)=O)[C@@H](OC)/C=C\C=C(/C)C(=O)NC(=CC1=O)C2=O [TANESPIMYCIN] the Activity (P388 [3]) was 30%, the Ka [4] was 1.2 ×10⁴ /M/s and the Time (P388 [5]) was 13 days.
